Assay [1] concerns TNFα production in human monocytic cell line THP-1. Briefly: Functional assay: inhibition of LPS-induced TNFα production in THP-1 cells. It is filed as cell-based. Conditions: LPS 10 μg/ml, 5 h at 37° C., TNFα ELISA. Background: In an ELISA, binding on a coated surface is turned into a signal by an enzyme label.
In assay [2] the target is T1, human p38alfa (SAPKa) enzyme (Homo sapiens, UniProt Q16539).
T1 construct: purchased University of Dundee
The experiment in a line: p38alpha enzymatic inhibition assay (FRET, ATF2 phosphorylation). Conditions: 1 h pre-incubation; biotinylated ATF2 0.62 μM, ATP 60 μM; 1 h at 25° C.; read-out: p38α IC50. Type of assay: biochemical.

T1 sequence (Q16539 whole entry): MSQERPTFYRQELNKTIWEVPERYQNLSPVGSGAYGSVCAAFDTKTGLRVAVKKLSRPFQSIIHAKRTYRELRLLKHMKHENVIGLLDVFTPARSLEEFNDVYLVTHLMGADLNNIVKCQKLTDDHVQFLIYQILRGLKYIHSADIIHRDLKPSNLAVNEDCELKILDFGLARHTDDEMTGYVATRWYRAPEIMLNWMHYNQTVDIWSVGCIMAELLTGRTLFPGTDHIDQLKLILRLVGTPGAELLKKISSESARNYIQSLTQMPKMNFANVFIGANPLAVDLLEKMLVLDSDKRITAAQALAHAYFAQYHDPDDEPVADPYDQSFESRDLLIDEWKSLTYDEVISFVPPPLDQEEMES

As a reminder, the IC50 is the concentration needed to halve the response being measured. The molecule `[O-][n+]1ccc2c(-c3ccc(F)cc3F)ccnc2c1-c1c(F)cccc1F` [Example 19, 4-(2,4-Difluorophenyl)-8-(2,6-difluorophenyl)-1,7-naphthyridine 7-oxide] registered an IC50 in assay [1] of 223 nM.

As for `[O-][n+]1ccc2c(-c3ccc(F)cc3F)cc(C3CCNCC3)nc2c1-c1c(F)cccc1F` [Example 29, 4-(2,4-Difluorophenyl)-8-(2,6-difluorophenyl)-2-piperidin-4-yl-1,7-naphthyridine 7-oxide], the IC50 in assay [2] amounted to 0.9 nM; in assay [1] it was 2.45 nM.

For `CC(C)(C)N1CCC(c2cc(-c3ccc(F)cc3F)c3cc[n+]([O-])c(-c4c(F)cccc4F)c3n2)CC1` [Example 35, 2-(1-Tert-butylpiperidin-4-yl)-4-(2,4-difluorophenyl)-8-(2,6-difluorophenyl)-1,7-naphthyridine 7-oxide], the IC50 in assay [2] is 2.8 nM; in assay [1], 3.4 nM.

For `CC(C)(C)N1CCC(c2cc(-c3ccc(F)cc3F)c3cc[n+]([O-])c(-c4c(Cl)cccc4Cl)c3n2)CC1` [Example 36, 2-(1-Tert-butylpiperidin-4-yl)-8-(2,6-dichlorophenyl)-4-(2,4-difluorophenyl)-1,7-naphthyridine 7-oxide], the IC50 in assay [2] came to 1.2 nM; in assay [1] it was 1.6 nM.

`[O-][n+]1ccc2c(-c3ccc(F)cc3Cl)ccnc2c1-c1c(F)cccc1F` [Example 39, 4-(2-Chloro-4-fluorophenyl)-8-(2,6-difluorophenyl)-1,7-naphthyridine 7-oxide]: the values for the IC50 in assay [2] and in assay [1] were 87 nM and 63 nM, respectively.

In assay [1], `[O-][n+]1ccc2c(-c3ccc(F)cc3Cl)ccnc2c1-c1c(Cl)cccc1Cl` [Example 40, 4-(2-Chloro-4-fluorophenyl)-8-(2,6-dichlorophenyl)-1,7-naphthyridine 7-oxide] displayed an IC50 of 43.5 nM.

In assay [1], `[O-][n+]1ccc2c(-c3ccc(F)cc3Cl)cc(C3CCNCC3)nc2c1-c1c(Cl)cccc1Cl` [Example 43, 4-(2-Chloro-4-fluorophenyl)-8-(2,6-dichlorophenyl)-2-piperidin-4-yl-1,7-naphthyridine 7-oxide] showed a concentration for half-maximal inhibition (IC50) of 2.9 nM.

For `CC(C)(C)N1CCC(c2cc(-c3ccc(F)cc3Cl)c3cc[n+]([O-])c(-c4c(F)cccc4F)c3n2)CC1` [Example 48, 2-(1-Tert-butylpiperidin-4-yl)-4-(2-chloro-4-fluorophenyl)-8-(2,6-difluorophenyl)-1,7-naphthyridine 7-oxide], the 50% inhibitory concentration (IC50) in assay [2] amounted to 1.6 nM; in assay [1], 3 nM.

With `CC(C)(C)N1CCC(c2cc(-c3ccc(F)cc3Cl)c3cc[n+]([O-])c(-c4c(Cl)cccc4Cl)c3n2)CC1` [Example 49, 2-(1-Tert-butylpiperidin-4-yl)-4-(2-chloro-4-fluorophenyl)-8-(2,6-dichlorophenyl)-1,7-naphthyridine 7-oxide], the IC50 in assay [1] is 0.46 nM.

The molecule `[O-][n+]1ccc2c(-c3ccccc3Cl)cc(C3CCNCC3)nc2c1-c1c(F)cccc1F` [Example 52, 4-(2-Chlorophenyl)-8-(2,6-difluorophenyl)-2-piperidin-4-yl-1,7-naphthyridine 7-oxide] displayed an IC50 in assay [1] of 4.2 nM.

As to `[O-][n+]1ccc2c(-c3ccccc3Cl)cc(C3CCNCC3)nc2c1-c1c(Cl)cccc1Cl` [Example 53, 4-(2-Chlorophenyl)-8-(2,6-dichlorophenyl)-2-piperidin-4-yl-1,7-naphthyridine 7-oxide], the IC50 in assay [2] is 0.34 nM; in assay [1] it was 0.53 nM.

Turning to `CC(C)(C)N1CCC(c2cc(-c3ccccc3Cl)c3cc[n+]([O-])c(-c4c(Cl)cccc4Cl)c3n2)CC1` [Example 59, 2-(1-Tert-butylpiperidin-4-yl)-4-(2-chlorophenyl)-8-(2,6-dichlorophenyl)-1,7-naphthyridine 7-oxide], the IC50 stood at 0.41 nM in assay [2] and 0.1 nM in assay [1].

Consider `[O-][n+]1ccc2c(-c3ccc(F)cc3F)cc(NC3CCNCC3)nc2c1-c1c(Cl)cccc1Cl` [Example 86, 8-(2,6-Dichlorophenyl)-4-(2,4-difluorophenyl)-N-piperidin-4-yl-1,7-naphthyridin-2-amine 7-oxide], for which the half-inhibitory concentration (IC50) in assay [2] came out at 0.37 nM; in assay [1], 0.9 nM.

With `[O-][n+]1ccc2c(-c3ccc(F)cc3F)cc(N3CCNCC3)nc2c1-c1c(Cl)cccc1Cl` [Example 90, 8-(2,6-Dichlorophenyl)-4-(2,4-difluorophenyl)-2-piperazin-1-yl-1,7-naphthyridine 7-oxide], the IC50 in assay [2] amounted to 1.1 nM; in assay [1], 0.8 nM.

`[O-][n+]1ccc2c(-c3ccc(F)cc3F)cc(N3CCNCC3)nc2c1-c1c(F)cccc1F` [Example 91, 4-(2,4-Difluorophenyl)-8-(2,6-difluorophenyl)-2-piperazin-1-yl-1,7-naphthyridine 7-oxide] showed an IC50 in assay [1] of 4.1 nM.

For the molecule `[O-][n+]1ccc2c(-c3ccc(F)cc3F)cc(OC3CCNCC3)nc2c1-c1c(Cl)cccc1Cl` [Example 95, 8-(2,6-Dichlorophenyl)-4-(2,4-difluorophenyl)-2-(piperidin-4-yloxy)-1,7-naphthyridine 7-oxide], the half-inhibitory concentration (IC50) in assay [2] came to 0.92 nM; in assay [1], 0.2 nM.

As to `[O-][n+]1ccc2c(-c3ccc(F)cc3F)cc(OC3CCNCC3)nc2c1-c1c(F)cccc1F` [Example 96, 4-(2,4-Difluorophenyl)-8-(2,6-difluorophenyl)-2-(piperidin-4-yloxy)-1,7-naphthyridine 7-oxide], the IC50 was found to be 0.22 nM in assay [2] and 3.2 nM in assay [1].

The record behind these values is patent US7906530B2, “1,7-naphthyridine derivatives as p38 MAP kinase inhibitors” (Laboratorios Almirall, S.A., priority 2006, dated 2011).
